Source: PubChem BioAssay AID2060513 (Molecular Pharmacology Branch, DTP, NCI, 2025)
Values joined by “and” are separate entries in the source; they are usually repeats but may differ in a detail not shown here. Equal values may be shown once.

System: 299254-011-R-J1-PDC complex spheroids viability
Assay: Anticancer human tumor 299254-011-R-J1-PDC patient-derived melanoma cell line growth inhibition [GQUAD]
Details: for viability, T/C: stronger effect = lower value
Source text: DNA G-quadruplex Stabilizer Agents in Combinations in Complex Spheroids
A high-throughput screen of multi-cell type tumor spheroids was designed to identify active combinations of DNA G-quadruplex stabilizer agents and targeted small molecules. Complex spheroids include a stromal component modeled by human endothelial cells (HUVEC) and fibroblasts modeled by human mesenchymal stem cells (MSCs). The concentration ranges selected for each drug and investigational agent were based upon clinically achievable concentrations if the clinical Cmax of the agent was known.
Compounds. The drugs and investigational agents: pidnarulex (CX-5461; NSC782164), APTO-253 (NSC789042), BRACO-19 (NSC847499), peposertib (NSC802822), ceralasertib (NSC780249), elimusertib (NSC800525), camonsertib (NSC841442), AZD-1390 (NSC803789), olaparib (NSC753686), talazoparib (NSC767125), ART-558 (NSC835418), sotorasib (NSC818433), MRTX-1133 (NSC836407), SN-38 (NSC673596), topotecan (NSC609699), etoposide (NSC141540), doxorubicin (NSC123127), gemcitabine (NSC613327), 5-fluorouracil (NSC19893), paclitaxel (NSC125973), vemurafenib (NSC761431), panobinostat (NSC761190), R-306465 (JNJ-16241199; NSC773264), adavosertib (NSC754352), TP-3654 (NSC805149), carboplatin (NSC241240), KSQ-4279 (NSC840948), and staurosporine (NSC755774) were obtained from the National Cancer Institute (NCI) Developmental Therapeutics Program Chemical Repository (34). The FDA-approved anticancer drug set is available from the NCI Developmental Therapeutics Program. […] The stock solutions were prepared in dimethyl sulfoxide (DMSO, Sigma-Aldrich, St. Louis, MO, cat. D2650) at 800-fold the tested concentration and stored at -70 degrees C prior to their use. All drugs and investigational agents were tested over a range starting from a high concentration at or near the clinical Cmax and decreasing in half-log increments. If the clinical Cmax for an agent had not been determined, the highest concentration tested was 10 microM.
2.3 Cell Culture. All cells were maintained in an incubator at 37 degrees C and 5% CO2 with 95% humidity. The PDC lines were cultured according to standard operating procedures established by the NCI PDMR. All PDCs were thawed and cultured in Matrigel-coated flasks prepared with a working solution of 1X Ham's F-12 nutrient mix, without supplementation (Invitrogen, cat. 11765054), 100 U/mL penicillin-streptomycin (Invitrogen, cat. 15140122), and 2.5% Matrigel (Corning Inc., cat. 354248) for the first three passages. The 857933-349-R-J2-PDC line was cultured in 6C/Colon 1B media, which includes advanced DMEM/F-12 (Thermo Fisher Scientific, cat. 12634028), 10 mM HEPES (Thermo Fisher Scientific, cat. 15630080), 1X GlutaMAX supplement (Thermo Fisher Scientific, cat. 35050061), 0.1 mg/mL primocin (InvivoGen, cat. ant-pm-2), 10% defined fetal bovine serum, heat inactivated (HyClone Laboratories Inc., cat. SH30070.03HI), 50% L-WRN conditioned media (ATCC, cat. CRL-3276), 1.25 mM N-Acetyl-L-cysteine (Sigma-Aldrich, cat. A9165), 10 mM nicotinamide (Sigma-Aldrich, cat. N0636), 1X B-27 supplement (Thermo Fisher Scientific, cat. 17504044), 1X N-2 supplement (Thermo Fisher Scientific, cat. 17502048), 10 microM Y-27632 dihydrochloride (Tocris Bioscience, cat. 1254), and 50 ng/mL human EGF recombinant protein (Thermo Fisher Scientific, cat. PHG0311). The 485176-168-R4-J1-PDC line was cultured in Panc media, which includes all 6C/Colon 1B media components plus 100 ng/mL human FGF-10 (Thermo Fisher Scientific, cat. 100-26), 500 nM SB-431542 (Selleckchem, cat. S1067), and gastrin (Tocris, cat. 3006).
[…]

[1] = curve of first compound, second compound 0.0316 µM
[2] = curve of first compound, second compound 0.1 µM
[3] = curve of first compound, second compound 0.316 µM
[4] = curve of first compound, second compound 1 µM
[5] = curve of first compound, second compound 3.16 µM
[6] = curve of first compound, second compound 10 µM
[7] = second compound 0.0316 µM, first compound 0.0316 µM
[8] = second compound 0.0316 µM, first compound 0.1 µM
[9] = second compound 0.0316 µM, first compound 0.316 µM
[10] = second compound 0.0316 µM, first compound 1 µM
[11] = second compound 0.0316 µM, first compound 3.16 µM
[12] = second compound 0.0316 µM, first compound 10 µM
[13] = second compound 0.1 µM, first compound 0.0316 µM
[14] = second compound 0.1 µM, first compound 0.1 µM
[15] = second compound 0.1 µM, first compound 0.316 µM
[16] = second compound 0.1 µM, first compound 1 µM
[17] = second compound 0.1 µM, first compound 3.16 µM
[18] = second compound 0.1 µM, first compound 10 µM
[19] = second compound 0.316 µM, first compound 0.0316 µM
[20] = second compound 0.316 µM, first compound 0.1 µM
[21] = second compound 0.316 µM, first compound 0.316 µM
[22] = second compound 0.316 µM, first compound 1 µM
[23] = second compound 0.316 µM, first compound 3.16 µM
[24] = second compound 0.316 µM, first compound 10 µM
[25] = second compound 1 µM, first compound 0.0316 µM
[26] = second compound 1 µM, first compound 0.1 µM
[27] = second compound 1 µM, first compound 0.316 µM
[28] = second compound 1 µM, first compound 1 µM
[29] = second compound 1 µM, first compound 3.16 µM
[30] = second compound 1 µM, first compound 10 µM
[31] = second compound 3.16 µM, first compound 0.0316 µM
[32] = second compound 3.16 µM, first compound 0.1 µM
[33] = second compound 3.16 µM, first compound 0.316 µM
[34] = second compound 3.16 µM, first compound 1 µM
[35] = second compound 3.16 µM, first compound 3.16 µM
[36] = second compound 3.16 µM, first compound 10 µM
[37] = second compound 10 µM, first compound 0.0316 µM
[38] = second compound 10 µM, first compound 0.1 µM
[39] = second compound 10 µM, first compound 0.316 µM
[40] = second compound 10 µM, first compound 1 µM
[41] = second compound 10 µM, first compound 3.16 µM
[42] = second compound 10 µM, first compound 10 µM
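Note: spheroids exposed to the agents for seven days before readout.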
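Throughout, for viability, T/C: percent viability relative to DMSO vehicle control wells = 100%.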

Work on `CCCS(=O)(=O)Nc1ccc(F)c(C(=O)c2c[nH]c3ncc(-c4ccc(Cl)cc4)cc23)c1F` + CN(C)c1ccc(Nc2c3ccc(NC(=O)CCN4CCCC4)cc3nc3cc(NC(=O)CCN4CCCC4)ccc23)cc1 yielded an IC50 [1] of 8.59 µM, an IC50 [2] of 8.1 µM and an IC50 [3] of 8.91 µM. It also gave an IC50 [4] of 7.96 µM, an IC50 [5] of 8.99 µM and an IC50 [6] of 7.92 µM. For the same molecule, the viability, T/C [7] was 116%, the viability, T/C [8] was 111% and the viability, T/C [9] was 116%. It also gave a viability, T/C [10] of 103%, a viability, T/C [11] of 108% and a viability, T/C [12] of 41%. The viability, T/C [13] was 105%, the viability, T/C [14] was 104% and the viability, T/C [15] was 101%. It also gave a viability, T/C [16] of 88.4%, a viability, T/C [17] of 108% and a viability, T/C [18] of 38.5%. The viability, T/C [19] was 106%, the viability, T/C [20] was 111% and the viability, T/C [21] was 89.2%. The viability, T/C [22] was 103%, the viability, T/C [23] was 112% and the viability, T/C [24] was 43.9%. It also gave a viability, T/C [25] of 105%, a viability, T/C [26] of 111% and a viability, T/C [27] of 97.4%. For the same molecule, the viability, T/C [28] was 88.8%, the viability, T/C [29] was 94.4% and the viability, T/C [30] was 39.5%. For the same molecule, the viability, T/C [31] was 98.3%, the viability, T/C [32] was 95.1% and the viability, T/C [33] was 112%. It also gave a viability, T/C [34] of 97%, a viability, T/C [35] of 90.1% and a viability, T/C [36] of 45.8%. For the same molecule, the viability, T/C [37] was 110%, the viability, T/C [38] was 146% and the viability, T/C [39] was 116%. The viability, T/C [40] was 119%, the viability, T/C [41] was 111% and the viability, T/C [42] was 34.5%.
For `CC[C@@]1(O)C(=O)OCc2c1cc1n(c2=O)Cc2cc3c(CN(C)C)c(O)ccc3nc2-1`, the viability, T/C (compound 0.000999 µM) was 91.8% and 98.4% and 103%, the viability, T/C (compound 0.00316 µM) was 94% and 117% and 106% and the viability, T/C (compound 0.00999 µM) was 93.8% and 93.5% and 91.8%. The viability, T/C (compound 0.0316 µM) was 85.7% and 102% and 117%, the viability, T/C (compound 0.0999 µM) was 80.3% and 103% and 96.4% and the viability, T/C (compound 0.316 µM) was 97.9% and 88% and 91.1%. For the same molecule, the IC50 (curve of compound) was over 0.316 µM.
`CC(C)n1c(=O)n(C)c2cnc3cc(F)c(-c4ccc(OCCCN5CCCCC5)nc4)cc3c21` + Cc1cnc(CNC(=O)c2c(=O)c3ccc(N4CCCN(C)CC4)nc3n3c2sc2ccccc23)cn1 showed an IC50 [1] of over 10 µM, an IC50 [2] of 7.38 µM and an IC50 [3] of 2.38 µM. The IC50 [4] was 4.09 µM, the IC50 [5] was 1.36 µM and the IC50 [6] was under 0.0316 µM. For the same molecule, the viability, T/C [7] was 94.4%, the viability, T/C [8] was 79.1% and the viability, T/C [9] was 85.8%. It also gave a viability, T/C [10] of 73%, a viability, T/C [11] of 69.7% and a viability, T/C [12] of 51%. The viability, T/C [13] was 96.9%, the viability, T/C [14] was 96.4% and the viability, T/C [15] was 77.3%. It also gave a viability, T/C [16] of 87.8%, a viability, T/C [17] of 63.1% and a viability, T/C [18] of 44.4%. It also gave a viability, T/C [19] of 77.4%, a viability, T/C [20] of 87.2% and a viability, T/C [21] of 65.2%. The viability, T/C [22] was 55.7%, the viability, T/C [23] was 53% and the viability, T/C [24] was 39.5%. The viability, T/C [25] was 56.4%, the viability, T/C [26] was 56.6% and the viability, T/C [27] was 66.9%. The viability, T/C [28] was 54.7%, the viability, T/C [29] was 58.1% and the viability, T/C [30] was 22.4%. It also gave a viability, T/C [31] of 55.4%, a viability, T/C [32] of 78.3% and a viability, T/C [33] of 64%. It also gave a viability, T/C [34] of 53.5%, a viability, T/C [35] of 35.6% and a viability, T/C [36] of 13.6%. The viability, T/C [37] was 0.37%, the viability, T/C [38] was 12.4% and the viability, T/C [39] was 12.2%. The viability, T/C [40] was 3.21%, the viability, T/C [41] was 0.36% and the viability, T/C [42] was 0.31%.
